From ChEMBL document CHEMBL2163236, “7-Oxo-[1,4]oxazino[2,3,4-ij]quinoline-6-carboxamides as selective CB(2) cannabinoid receptor ligands: structural investigations around a novel class of full agonists” (J Med Chem, 2012) come the findings set out here.

Each structure is given as a SMILES string.

Experiment [1] concerns the target T1, Cannabinoid receptor 2 (Homo sapiens, UniProt P34972). Description: Agonist activity at human recombinant CB2 receptor expressed in CHO cell membranes assessed as inhibition of forskolin-induced cAMP accumulation. Type of experiment: functional, cell-based.
For the next experiment, the species on record is Homo sapiens. Put plainly: Selectivity ratio of Ki for human recombinant CB1 receptor to KI for human recombinant CB2 receptor.
Experiment [2] deals with Cannabinoid receptor 1 (Homo sapiens, UniProt P21554). Put plainly: Displacement of [3H]CP-55940 from human recombinant CB1 receptor expressed in CHO cell membranes incubated for 90 mins by scintillation counting.
Chain of Cannabinoid receptor 1 (Homo sapiens, UniProt P21554) (P21554 whole entry): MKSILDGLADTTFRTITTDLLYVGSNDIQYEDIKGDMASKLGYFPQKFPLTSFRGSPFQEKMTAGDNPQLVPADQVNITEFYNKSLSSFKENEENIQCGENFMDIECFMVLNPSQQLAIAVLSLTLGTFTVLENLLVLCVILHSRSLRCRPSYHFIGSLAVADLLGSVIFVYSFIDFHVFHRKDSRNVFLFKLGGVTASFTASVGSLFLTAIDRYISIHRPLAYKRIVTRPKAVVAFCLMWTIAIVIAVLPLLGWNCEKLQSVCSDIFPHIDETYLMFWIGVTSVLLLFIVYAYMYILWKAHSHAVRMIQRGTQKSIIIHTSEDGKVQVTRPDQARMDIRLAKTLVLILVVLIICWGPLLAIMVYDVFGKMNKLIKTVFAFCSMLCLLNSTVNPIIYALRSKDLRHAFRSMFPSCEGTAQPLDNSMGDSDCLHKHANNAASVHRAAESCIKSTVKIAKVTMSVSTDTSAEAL
Experiment [3] concerns the target T1, Cannabinoid receptor 2. Put plainly: Displacement of [3H]CP-55940 from human recombinant CB2 receptor expressed in CHO cell membranes incubated for 60 mins by scintillation counting.
Experiment [4] deals with T2, Cannabinoid receptor 2 (Rattus norvegicus, UniProt Q9QZN9).
T2 sequence (Q9QZN9 whole entry): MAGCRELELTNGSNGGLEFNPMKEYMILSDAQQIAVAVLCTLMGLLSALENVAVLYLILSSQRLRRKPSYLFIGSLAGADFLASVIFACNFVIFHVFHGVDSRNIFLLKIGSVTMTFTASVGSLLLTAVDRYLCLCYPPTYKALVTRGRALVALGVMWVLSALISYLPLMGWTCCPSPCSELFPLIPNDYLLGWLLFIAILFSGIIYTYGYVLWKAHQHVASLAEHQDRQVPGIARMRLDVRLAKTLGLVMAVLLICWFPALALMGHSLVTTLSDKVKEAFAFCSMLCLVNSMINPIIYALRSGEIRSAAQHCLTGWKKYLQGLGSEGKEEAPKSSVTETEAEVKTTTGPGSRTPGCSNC
Put plainly: Displacement of [3H]CP-55940 from CB2 receptor in Sprague-Dawley rat spleen by scintillation counting.

The target of experiment [5] is Cannabinoid receptor 1 (Rattus norvegicus, UniProt P20272). Description: Displacement of [3H]CP-55940 from CB1 receptor in Sprague-Dawley rat brain by scintillation counting.
Chain of Cannabinoid receptor 1 (Rattus norvegicus, UniProt P20272) (P20272 whole entry): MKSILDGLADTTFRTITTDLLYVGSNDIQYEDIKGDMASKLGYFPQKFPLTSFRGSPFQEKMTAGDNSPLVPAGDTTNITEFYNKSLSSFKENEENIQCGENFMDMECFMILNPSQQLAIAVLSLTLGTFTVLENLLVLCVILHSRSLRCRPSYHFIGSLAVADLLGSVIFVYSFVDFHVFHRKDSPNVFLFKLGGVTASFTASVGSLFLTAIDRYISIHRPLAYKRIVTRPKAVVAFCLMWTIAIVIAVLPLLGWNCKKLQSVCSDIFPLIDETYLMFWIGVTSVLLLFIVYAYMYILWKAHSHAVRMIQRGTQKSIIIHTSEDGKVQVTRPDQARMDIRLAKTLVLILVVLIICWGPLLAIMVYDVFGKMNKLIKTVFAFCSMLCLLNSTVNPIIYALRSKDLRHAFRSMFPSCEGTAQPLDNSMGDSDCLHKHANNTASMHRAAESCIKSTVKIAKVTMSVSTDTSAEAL

T1 sequence (P34972 whole entry): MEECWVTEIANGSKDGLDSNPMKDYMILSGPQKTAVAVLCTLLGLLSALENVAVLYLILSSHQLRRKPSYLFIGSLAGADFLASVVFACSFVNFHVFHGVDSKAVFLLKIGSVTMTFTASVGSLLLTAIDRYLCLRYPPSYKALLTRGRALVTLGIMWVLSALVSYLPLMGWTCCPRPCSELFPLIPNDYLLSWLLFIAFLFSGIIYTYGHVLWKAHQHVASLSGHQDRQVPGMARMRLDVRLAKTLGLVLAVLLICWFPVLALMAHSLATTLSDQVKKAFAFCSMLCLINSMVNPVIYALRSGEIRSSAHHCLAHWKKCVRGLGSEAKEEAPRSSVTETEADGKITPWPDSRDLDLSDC

Regarding `CCC1COc2cccc3c(=O)c(C(=O)NC45CC6CC(CC(C6)C4)C5)cn1c23` (racemic), on Cannabinoid receptor 2 [1], the IC50 was determined as 38 nM. Further, the Ratio Ki in the experiment filed under Homo sapiens stood at 88. Further, the Ki turned out to be 689 nM at Cannabinoid receptor 1 [2], 7.83 nM on Cannabinoid receptor 2 [3], 13.5 nM at Cannabinoid receptor 2 [4] and 725 nM on Cannabinoid receptor 1 [5].

For `CCC1COc2cccc3c(=O)c(C(=O)NC4C5CC6CC(C5)CC4C6)cn1c23` (racemic), the IC50 at Cannabinoid receptor 2 [1] was found to be 57 nM. Further, the Ratio Ki in the experiment listed under Homo sapiens is 30. Also, the Ki on Cannabinoid receptor 1 [2] amounted to 389 nM; at Cannabinoid receptor 2 [3], 13.2 nM; on Cannabinoid receptor 2 [4], 16.1 nM; on Cannabinoid receptor 1 [5] it was 425 nM.

As for `CCC1COc2cccc3c(=O)c(C(=O)NC(C)CCC(C)C)cn1c23` (racemic), on Cannabinoid receptor 2 [1], the half-maximal inhibitory concentration (IC50) worked out at 62 nM. Further, in the experiment filed under Homo sapiens, the Ratio Ki was > 633. Besides, the Ki on Cannabinoid receptor 1 [2] is > 10000 nM; on Cannabinoid receptor 2 [3] it was 15.8 nM; at Cannabinoid receptor 2 [4], 196 nM; at Cannabinoid receptor 1 [5] it was > 10000 nM.

Take `CCC1COc2cccc3c(=O)c(C(=O)Nc4ccncc4)cn1c23` (racemic): on Cannabinoid receptor 2 [1], the IC50 is 683 nM. For the same compound, the Ratio Ki in the experiment filed under Homo sapiens was found to be 8. In addition, the inhibition constant (Ki) on Cannabinoid receptor 1 [2] was 1150 nM; on Cannabinoid receptor 2 [3], 152 nM; on Cannabinoid receptor 2 [4], 183 nM; at Cannabinoid receptor 1 [5] it was 1380 nM.

For `CCC1COc2cccc3c(=O)c(C(=O)Nc4nccs4)cn1c23` (racemic), at Cannabinoid receptor 2 [1], the IC50 was determined as 1130 nM. The Ratio Ki in the experiment filed under Homo sapiens amounted to 5. Also, the Ki came to 1360 nM at Cannabinoid receptor 1 [2], 265 nM on Cannabinoid receptor 2 [3], 324 nM at Cannabinoid receptor 2 [4] and 1620 nM at Cannabinoid receptor 1 [5].

In the case of `CCC1COc2cccc3c(=O)c(C(=O)N(C(C)C)C(C)C)cn1c23` (racemic), at Cannabinoid receptor 2 [1], the IC50 was determined as 423 nM. For the same compound, the Ratio Ki in the experiment listed under Homo sapiens was > 118. Further, the Ki on Cannabinoid receptor 1 [2] is > 10000 nM; on Cannabinoid receptor 2 [3], 85 nM; on Cannabinoid receptor 2 [4], 104 nM; on Cannabinoid receptor 1 [5], > 10000 nM.

Regarding `O=C(NC1CCCCC1)c1cn2c3c(cccc3c1=O)OCC2c1ccccc1` (racemic), the IC50 on Cannabinoid receptor 2 [1] came to 15.2 nM. Moreover, the Ratio Ki in the experiment filed under Homo sapiens was 166. In addition, the Ki on Cannabinoid receptor 1 [2] turned out to be 420 nM; at Cannabinoid receptor 2 [3] it was 2.52 nM; at Cannabinoid receptor 2 [4] it was 19.3 nM; on Cannabinoid receptor 1 [5], 1150 nM.

Consider `O=C(NC1CCCCCC1)c1cn2c3c(cccc3c1=O)OCC2c1ccccc1` (racemic), for which, at Cannabinoid receptor 2 [1], the half-maximal inhibitory concentration (IC50) came to 5.23 nM. Also, the Ratio Ki in the experiment listed under Homo sapiens is 383. Also, the Ki on Cannabinoid receptor 1 [2] came to 310 nM; at Cannabinoid receptor 2 [3], 0.81 nM; at Cannabinoid receptor 2 [4] it was 14.7 nM; on Cannabinoid receptor 1 [5], 372 nM.

Consider `O=C(NC12CC3CC(CC(C3)C1)C2)c1cn2c3c(cccc3c1=O)OCC2c1ccccc1` (racemic), for which the IC50 on Cannabinoid receptor 2 [1] was 26 nM. For the same compound, in the experiment filed under Homo sapiens, the Ratio Ki came out at 19. The Ki on Cannabinoid receptor 1 [2] is 265 nM; on Cannabinoid receptor 2 [3], 14.2 nM; at Cannabinoid receptor 2 [4] it was 18.3 nM; on Cannabinoid receptor 1 [5], 670 nM.

For `CC12CC3CC(C)(C1)CC(NC(=O)c1cn4c5c(cccc5c1=O)OCC4c1ccccc1)(C3)C2` (racemic), the IC50 at Cannabinoid receptor 2 [1] came to 18.3 nM. Further, in the experiment listed under Homo sapiens, the Ratio Ki was determined as 133. Further, the Ki on Cannabinoid receptor 1 [2] was found to be 460 nM; on Cannabinoid receptor 2 [3] it was 3.45 nM; on Cannabinoid receptor 2 [4], 46 nM; on Cannabinoid receptor 1 [5] it was 545 nM.

On to `CC1Oc2cccc3c(=O)c(C(=O)NC4CCCCC4)cn(c23)C1c1ccccc1` (racemic), for which the IC50 at Cannabinoid receptor 2 [1] was determined as 2750 nM. Moreover, in the experiment filed under Homo sapiens, the Ratio Ki came out at 5.83. Besides, the Ki came to 3130 nM on Cannabinoid receptor 1 [2], 536 nM on Cannabinoid receptor 2 [3], 710 nM at Cannabinoid receptor 2 [4] and 3520 nM on Cannabinoid receptor 1 [5].

As for `CC1Oc2cccc3c(=O)c(C(=O)NC45CC6CC(CC(C6)C4)C5)cn(c23)C1c1ccccc1` (racemic), the IC50 at Cannabinoid receptor 2 [1] was 1680 nM. Besides, the Ratio Ki in the experiment listed under Homo sapiens stood at 7.33. In addition, the Ki on Cannabinoid receptor 1 [2] turned out to be 2440 nM; at Cannabinoid receptor 2 [3], 332 nM; at Cannabinoid receptor 2 [4], 443 nM; on Cannabinoid receptor 1 [5] it was 2640 nM.

Regarding `Cc1ccc(C2COc3cccc4c(=O)c(C(=O)NC5CCCCC5)cn2c34)cc1` (racemic), the IC50 at Cannabinoid receptor 2 [1] was determined as 2460 nM. The Ratio Ki in the experiment filed under Homo sapiens is 8.78. The Ki on Cannabinoid receptor 1 [2] was 4110 nM; at Cannabinoid receptor 2 [3], 468 nM; at Cannabinoid receptor 2 [4], 547 nM; on Cannabinoid receptor 1 [5], 4570 nM.

`Cc1ccc(C2COc3cccc4c(=O)c(C(=O)NC56CC7CC(CC(C7)C5)C6)cn2c34)cc1` (racemic): the IC50 at Cannabinoid receptor 2 [1] was 2210 nM. Further, the Ratio Ki in the experiment listed under Homo sapiens worked out at 9.41. In addition, the inhibitory constant (Ki) was found to be 3880 nM on Cannabinoid receptor 1 [2], 412 nM at Cannabinoid receptor 2 [3], 482 nM at Cannabinoid receptor 2 [4] and 4150 nM on Cannabinoid receptor 1 [5].

For `Cc1cc2c3c(c1)c(=O)c(C(=O)NC1CCCCC1)cn3C(c1ccccc1)CO2` (racemic), on Cannabinoid receptor 2 [1], the IC50 turned out to be 110 nM. Also, the Ratio Ki in the experiment listed under Homo sapiens amounted to 73. Further, the Ki is 1350 nM on Cannabinoid receptor 1 [2], 18.4 nM on Cannabinoid receptor 2 [3], 25 nM at Cannabinoid receptor 2 [4] and 1570 nM on Cannabinoid receptor 1 [5].

As for `CC1COc2cccc3c(=O)c(C(=O)NC4CCCCC4)cn1c23` (racemic), at Cannabinoid receptor 2 [1], the IC50 was 245 nM. Besides, the Ratio Ki in the experiment listed under Homo sapiens was found to be 36. Besides, the Ki on Cannabinoid receptor 1 [2] is 2150 nM; on Cannabinoid receptor 2 [3], 60 nM; at Cannabinoid receptor 2 [4] it was 65 nM; on Cannabinoid receptor 1 [5] it was 2630 nM.

Regarding `CC1COc2cccc3c(=O)c(C(=O)NC4CCCCCC4)cn1c23` (racemic), the IC50 on Cannabinoid receptor 2 [1] was determined as 210 nM. Besides, in the experiment filed under Homo sapiens, the Ratio Ki is > 263. Besides, the Ki on Cannabinoid receptor 1 [2] is > 10000 nM; on Cannabinoid receptor 2 [3], 38 nM; on Cannabinoid receptor 2 [4] it was 52 nM; at Cannabinoid receptor 1 [5], > 10000 nM.

As for `CC1COc2cccc3c(=O)c(C(=O)NC45CC6CC(CC(C6)C4)C5)cn1c23` (racemic), the concentration for half-maximal inhibition (IC50) at Cannabinoid receptor 2 [1] was 230 nM. The Ratio Ki in the experiment filed under Homo sapiens was > 212. In addition, the Ki is > 10000 nM at Cannabinoid receptor 1 [2], 47 nM on Cannabinoid receptor 2 [3], 55 nM on Cannabinoid receptor 2 [4] and > 10000 nM at Cannabinoid receptor 1 [5].

`CCC1COc2cccc3c(=O)c(C(=O)NC4CCCCC4)cn1c23` (racemic): the IC50 on Cannabinoid receptor 2 [1] came out at 62 nM. Moreover, the Ratio Ki in the experiment listed under Homo sapiens is 37. Moreover, the inhibition constant Ki at Cannabinoid receptor 1 [2] came out at 821 nM; at Cannabinoid receptor 2 [3] it was 22 nM; on Cannabinoid receptor 2 [4] it was 24 nM; at Cannabinoid receptor 1 [5], 972 nM.

`CCC1COc2cccc3c(=O)c(C(=O)NC4CCCCCC4)cn1c23` (racemic): the IC50 at Cannabinoid receptor 2 [1] is 42 nM. Besides, the Ratio Ki in the experiment filed under Homo sapiens came to 47. Further, the Ki came to 433 nM on Cannabinoid receptor 1 [2], 9.24 nM at Cannabinoid receptor 2 [3], 11.4 nM at Cannabinoid receptor 2 [4] and 498 nM on Cannabinoid receptor 1 [5].

As to `O=C(NC1CCCC1)c1cn2c3c(cccc3c1=O)OCC2c1ccccc1` (racemic), at Cannabinoid receptor 2 [1], the IC50 amounted to 472 nM. In the experiment filed under Homo sapiens, the Ratio Ki worked out at 1.35. Further, the inhibitory constant (Ki) on Cannabinoid receptor 1 [2] is 132 nM; at Cannabinoid receptor 2 [3] it was 98 nM; on Cannabinoid receptor 2 [4], 110 nM; on Cannabinoid receptor 1 [5], 150 nM.
